Laboratory results reported in the supplement of paper PMC9663587.

Columns and labels:
[1] = compound: T1, CN1CC[C@H](c2c(O)cc(O)c3c(=O)cc(-c4ccccc4Cl)oc23)[C@H](O)C1 [Flavopiridol]
[2] = compound: NC1(C(=O)N[C@@H](CCO)c2ccc(Cl)cc2)CCN(c2nc[nH]c3nccc2-3)CC1 [AZD5363]
[3] = compound: CO[C@@H](C)Cn1c(=O)n(C)c2cnc3ccc(-c4cncc(C(C)(C)O)c4)cc3c21
[4] = compound: CC(C)Nc1cc(-c2c[nH]c(C(=O)N[C@H](CO)c3cccc(Cl)c3)c2)c(Cl)cn1 [BVD523]
[5] = compound: C1=CC2=C(C=CC(=C2)C=C3C(=O)NC(=NCC4=CC=CS4)S3)N=C1 [R0-3306]
[6] = compound: T2, CC(=O)c1c(C)c2cnc(Nc3ccc(N4CCN(CCOCCOCCOCCNC(=O)COc5cccc6c5C(=O)N(C5CCC(=O)NC5=O)C6=O)CC4)cn3)nc2n(C2CCCC2)c1=O [BSJ-03-123]
[7] = compound: T1, Flavopiridol; assay: GR value, 72 h; higher = faster growth (1 = untreated, <0 = killing);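 note: breast cancer and non-malignant breast epithelial lines, nine half-log doses, viable cells counted by Hoechst and LIVE/DEAD dye imaging versus time-zero plates and DMSO controls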
[8] = compound: C=CC(=O)Nc1ccc(C(=O)Nc2[nH]nc3c2CN(C(=O)N[C@H](CN(C)C)c2ccccc2)C3(C)C)cc1 [YKL-5-124]; assay: as above
[9] = compound: CN(C)C/C=C/C(=O)Nc1ccc(C(=O)N2CCC[C@@H](Nc3ncc(Cl)c(-c4c[nH]c5ccccc45)n3)C2)cc1 [THZ531]; assay: as above
[10] = compound: CN(C)C(=O)c1cc2cnc(Nc3ccc(N4CCNCC4)cn3)nc2n1C1CCCC1 [LEE011/Ribociclib]; assay: as above
[11] = compound: T2, BSJ-03-123; assay: as above
[12] = compound: CN(C)C/C=C/C(=O)Nc1ccc(C(=O)Nc2cccc(Nc3ncc(Cl)c(-c4c[nH]c5ccccc45)n3)c2)cc1 [THZ1]; assay: as above
[13] = compound: CC(=O)O[C@H]1C(=O)[C@@]2(C)[C@H]([C@H](OC(=O)c3ccccc3)[C@]3(O)C[C@H](OC(=O)[C@H](O)[C@@H](NC(=O)c4ccccc4)c4ccccc4)C(C)=C1C3(C)C)[C@]1(OC(C)=O)CO[C@@H]1C[C@@H]2O [Paclitaxel]
[14] = compound: CCC1=CN=CN=C1N2CCN(CC2)CC3=NC4=C(N3)C=C(C=C4)C(F)(F)F
[15] = compound: CCOc1cc2ncc(C#N)c(Nc3ccc(OCc4ccccn4)c(Cl)c3)c2cc1NC(=O)/C=C/CN(C)C [Neratinib/HKI272]
[16] = compound: CCN1CCN(Cc2ccc(Nc3ncc(F)c(-c4cc(F)c5nc(C)n(C(C)C)c5c4)n3)nc2)CC1; assay: GR value, 72 h; higher = faster growth (1 = untreated, <0 = killing);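 note: breast cancer and non-malignant breast epithelial lines, nine half-log doses, viable cells counted by Hoechst and LIVE/DEAD dye imaging versus time-zero plates and DMSO controls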
[17] = compound: CCc1cnn2c(NCc3ccc[n+]([O-])c3)cc(N3CCCC[C@H]3CCO)nc12; assay: as above
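Throughout, for GR50, 72 h: breast cancer and non-malignant breast epithelial cell lines, Deep Dye Drop or Dye Drop imaging, nine half-log doses, GR normalized to time-zero plates and DMSO-only controls.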

## PDX1206
[1]
  GR50, 72 h: 0.0514 µM
[2]
  GR50, 72 h: 0.457 µM
[3]
  GR50, 72 h: 0.00134 µM
[4]
  GR50, 72 h: > 10 µM
[5]
  GR50, 72 h: 3.6 µM
[6]
  GR50, 72 h: 4.35 µM
[7]; 0.0001 µM
  GR value: 1.09 GR
[7]; 0.0003162 µM
  GR value: 0.867 GR
[7]; 0.001 µM
  GR value: 0.803 GR
[7]; 0.003162 µM
  GR value: 0.812 GR
[7]; 0.01 µM
  GR value: 1.03 GR
[7]; 0.03162 µM
  GR value: 0.485 GR
[7]; 0.1 µM
  GR value: 0.393 GR
[7]; 0.3162 µM
  GR value: -0.402 GR
[7]; 1 µM
  GR value: -0.571 GR
[8]; 0.001 µM
  GR value: 0.821 GR
[8]; 0.003162 µM
  GR value: 0.683 GR
[8]; 0.01 µM
  GR value: 0.588 GR
[8]; 0.03162 µM
  GR value: 0.519 GR
[8]; 0.1 µM
  GR value: 0.461 GR
[8]; 0.3162 µM
  GR value: 0.444 GR
[8]; 1 µM
  GR value: 0.323 GR
[8]; 3.162 µM
  GR value: 0.205 GR
[8]; 10 µM
  GR value: -0.502 GR
[9]; 0.0001 µM
  GR value: 1.14 GR
[9]; 0.0003162 µM
  GR value: 0.992 GR
[9]; 0.001 µM
  GR value: 1.01 GR
[9]; 0.003162 µM
  GR value: 1.05 GR
[9]; 0.01 µM
  GR value: 1.02 GR
[9]; 0.03162 µM
  GR value: 0.9 GR
[9]; 0.1 µM
  GR value: -0.371 GR
[9]; 0.3162 µM
  GR value: -0.273 GR
[9]; 1 µM
  GR value: -0.29 GR
[10]; 0.001 µM
  GR value: 0.899 GR
[10]; 0.003162 µM
  GR value: 0.915 GR
[10]; 0.01 µM
  GR value: 0.885 GR
[10]; 0.03162 µM
  GR value: 0.915 GR
[10]; 0.1 µM
  GR value: 0.758 GR
[10]; 0.3162 µM
  GR value: 0.817 GR
[10]; 1 µM
  GR value: 0.998 GR
[10]; 3.162 µM
  GR value: 0.753 GR
[10]; 10 µM
  GR value: 0.685 GR
[11]; 0.001 µM
  GR value: 1.02 GR
[11]; 0.003162 µM
  GR value: 0.915 GR
[11]; 0.01 µM
  GR value: 0.885 GR
[11]; 0.03162 µM
  GR value: 0.967 GR
[11]; 0.1 µM
  GR value: 0.904 GR
[11]; 0.3162 µM
  GR value: 0.912 GR
[11]; 1 µM
  GR value: 0.782 GR
[11]; 3.162 µM
  GR value: 0.726 GR
[11]; 10 µM
  GR value: -0.109 GR
[12]; 0.0001 µM
  GR value: 1.05 GR
[12]; 0.0003162 µM
  GR value: 1.03 GR
[12]; 0.001 µM
  GR value: 0.987 GR
[12]; 0.003162 µM
  GR value: 0.977 GR
[12]; 0.01 µM
  GR value: 0.933 GR
[12]; 0.03162 µM
  GR value: 0.351 GR
[12]; 0.1 µM
  GR value: -0.278 GR
[12]; 0.3162 µM
  GR value: -0.408 GR
[12]; 1 µM
  GR value: -0.536 GR

## BT474
[1]
  GR50, 72 h: 0.208 µM
[13]
  GR50, 72 h: 0.00412 µM
[3]
  GR50, 72 h: < 0.001 µM
[4]
  GR50, 72 h: > 10 µM
[5]
  GR50, 72 h: 3.53 µM
[14]
  GR50, 72 h: > 10 µM
[15]
  GR50, 72 h: 0.00166 µM
[6]
  GR50, 72 h: 0.235 µM
[7]; 0.0001 µM
  GR value: 1.17 GR
[7]; 0.0003162 µM
  GR value: 0.998 GR
[7]; 0.001 µM
  GR value: 0.895 GR
[7]; 0.003162 µM
  GR value: 0.878 GR
[7]; 0.01 µM
  GR value: 0.801 GR
[7]; 0.03162 µM
  GR value: 0.959 GR
[7]; 0.1 µM
  GR value: 0.935 GR
[7]; 0.3162 µM
  GR value: 0.154 GR
[7]; 1 µM
  GR value: -0.753 GR
[16]; 0.001 µM
  GR value: 1.01 GR
[16]; 0.003162 µM
  GR value: 0.837 GR
[16]; 0.01 µM
  GR value: 0.806 GR
[16]; 0.03162 µM
  GR value: 0.594 GR
[16]; 0.1 µM
  GR value: 0.62 GR
[16]; 0.3162 µM
  GR value: 0.536 GR
[16]; 1 µM
  GR value: 0.577 GR
[16]; 3.162 µM
  GR value: 0.696 GR
[16]; 10 µM
  GR value: 0.274 GR
[8]; 0.001 µM
  GR value: 0.506 GR
[8]; 0.003162 µM
  GR value: 0.225 GR
[8]; 0.01 µM
  GR value: 0.197 GR
[8]; 0.03162 µM
  GR value: 0.179 GR
[8]; 0.1 µM
  GR value: -0.0193 GR
[8]; 0.3162 µM
  GR value: -0.106 GR
[8]; 1 µM
  GR value: -0.16 GR
[8]; 3.162 µM
  GR value: -0.0451 GR
[8]; 10 µM
  GR value: -0.519 GR
[9]; 0.0001 µM
  GR value: 1.09 GR
[9]; 0.0003162 µM
  GR value: 0.953 GR
[9]; 0.001 µM
  GR value: 0.521 GR
[9]; 0.003162 µM
  GR value: 0.917 GR
[9]; 0.01 µM
  GR value: 1.1 GR
[9]; 0.03162 µM
  GR value: 0.881 GR
[9]; 0.1 µM
  GR value: -0.388 GR
[9]; 0.3162 µM
  GR value: -0.861 GR
[9]; 1 µM
  GR value: -0.675 GR
[17]; 0.0001 µM
  GR value: 1.02 GR
[17]; 0.0003162 µM
  GR value: 0.963 GR
[17]; 0.001 µM
  GR value: 1.17 GR
[17]; 0.003162 µM
  GR value: 1.12 GR
[17]; 0.01 µM
  GR value: 0.918 GR
[17]; 0.03162 µM
  GR value: -0.569 GR
[17]; 0.1 µM
  GR value: -0.753 GR
[17]; 0.3162 µM
  GR value: -0.769 GR
[17]; 1 µM
  GR value: -0.75 GR
[10]; 0.001 µM
  GR value: 0.773 GR
[10]; 0.003162 µM
  GR value: 0.676 GR
[10]; 0.01 µM
  GR value: 0.849 GR
[10]; 0.03162 µM
  GR value: 0.637 GR
[10]; 0.1 µM
  GR value: 0.674 GR
[10]; 0.3162 µM
  GR value: 0.447 GR
[10]; 1 µM
  GR value: 0.532 GR
[10]; 3.162 µM
  GR value: 0.6 GR
[10]; 10 µM
  GR value: 0.711 GR
[11]; 0.001 µM
  GR value: 1.01 GR
[11]; 0.003162 µM
  GR value: 0.599 GR
[11]; 0.01 µM
  GR value: 0.685 GR
[11]; 0.03162 µM
  GR value: 0.727 GR
[11]; 0.1 µM
  GR value: 0.515 GR
[11]; 0.3162 µM
  GR value: 0.523 GR
[11]; 1 µM
  GR value: 0.364 GR
[11]; 3.162 µM
  GR value: 0.386 GR
[11]; 10 µM
  GR value: 0.0116 GR
[12]; 0.0001 µM
  GR value: 1 GR
[12]; 0.0003162 µM
  GR value: 0.971 GR
[12]; 0.001 µM
  GR value: 0.687 GR
[12]; 0.003162 µM
  GR value: 0.659 GR
[12]; 0.01 µM
  GR value: 0.571 GR
[12]; 0.03162 µM
  GR value: 0.441 GR
[12]; 0.1 µM
  GR value: -0.627 GR
[12]; 0.3162 µM
  GR value: -0.683 GR
[12]; 1 µM
  GR value: -0.617 GR
